Key:
[1] = Metabolic stability in mouse liver microsomes; format: in vitro ADME; conditions: CD-1, mouse, pH 7.4, 1 μM compound, 0.5 mg/mL microsome, NADPH 1 mM, 37° C., read-out: Mouse liver microsome stability t1/2
From the text: • 1. Human liver microsome (Corning 452117), beagle dog liver microsome (XENOTECH D1000), SD rat liver microsome (XENOTECH R1000), and CD-1 mouse liver microsome (XENOTECH M1000) • 2. Na2HPO4 (Tianjin Guangfu Fine Chemical Research Institute 20180130) • 3. KH2PO4 (Tianjin Guangfu Fine Chemical Research Institute 20180920) • 4. MgCl2 (Tianjin Guangfu Fine Chemical Research Institute 20191216) • 5. NADPH (Solarbio 1216C022) • 6. Positive control compound verapamil (Sigma MKBV4993V) • 7. AB Sciex API4000 liquid chromatography-mass spectrometry system
• 1. Preparation of 100 mM phosphate-buffered saline (PBS): 7.098 g Na2HPO4 was weighed. 500 mL pure water was added. The mixture was dissolved by sonication to give solution A. 3.400 g KH2PO4 was weighed. 250 mL pure water was added. […]
All data were calculated by Microsoft Excel software. The peak area was detected through an extracted ion chromatogram. The in vitro half-life (t1/2) of the compound was determined by linear fitting of the natural logarithm of compound elimination percentage over time.
In vitro half-life (t1/2) was calculated by the slope k: […]
The in vitro intrinsic clearance (in μL/min/mg protein) was calculated using the following formula: […]

CYP2D6 = CYP2D6 (Homo sapiens (Human), UniProt P10635); experiment: Inhibition of CYP2D6 enzymatic activity in human liver microsomes; format: in vitro ADME; conditions: human liver microsome, substrate dextromethorphan, 20 min
CYP2D6, sequence (P10635 whole entry): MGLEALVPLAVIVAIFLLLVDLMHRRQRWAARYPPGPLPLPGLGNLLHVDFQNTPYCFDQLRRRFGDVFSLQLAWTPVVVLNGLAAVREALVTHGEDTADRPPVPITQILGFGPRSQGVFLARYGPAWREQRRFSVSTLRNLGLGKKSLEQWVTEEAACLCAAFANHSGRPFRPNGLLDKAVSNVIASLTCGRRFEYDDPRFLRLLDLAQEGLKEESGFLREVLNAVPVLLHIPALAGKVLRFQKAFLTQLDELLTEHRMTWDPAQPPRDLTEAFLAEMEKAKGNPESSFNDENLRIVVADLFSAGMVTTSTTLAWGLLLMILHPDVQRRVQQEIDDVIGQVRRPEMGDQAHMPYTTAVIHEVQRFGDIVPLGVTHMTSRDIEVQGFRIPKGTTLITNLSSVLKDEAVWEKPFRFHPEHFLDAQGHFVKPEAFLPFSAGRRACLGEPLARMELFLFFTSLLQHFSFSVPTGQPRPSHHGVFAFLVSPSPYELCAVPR
Procedure: The inhibition of CYP2C9 and CYP2D6 activity by the compound of the present invention was determined using the following method.
• 1. Human liver microsome (Corning 452117) • 2. NADPH (Solarbio 705Y021) • 3. Positive substrates diclofenac (Sigma SLBV3438) and dextromethorphan (TRC 3-EDO-175-1) • 4. Positive inhibitors sulfaphenazole (D. Ehrenstorfer GmbH 109012) and quinidine (TCI WEODL-RE) • 5. AB Sciex Triple Quad 5500 liquid chromatography-mass spectrometry system
• 1. Preparation of 100 mM phosphate-buffered saline (PBS): 7.098 g Na2HPO4 was weighed. 500 mL pure water was added. The mixture was dissolved by sonication to give solution A. 3.400 g KH2PO4 was weighed. 250 mL pure water was added. The mixture was dissolved by sonication to give solution B. The solution A was placed in a stirrer, and the solution B was slowly added until the pH reached 7.4, so that the 100 mM PBS buffer was prepared. • 2. A 10 mM NADPH solution was prepared with a 100 mM PBS buffer. A 10 mM stock solution of the compound of the present invention was diluted with DMSO to give a compound working solution at a concentration of 200×(6000, 2000, 600, 200, 60, 20, and 0 μM). […]
The reduction of metabolite production in the treatment groups versus the control group was compared by the peak area ratios of the sample to the internal standard, and the IC50 value was calculated using Excel XLfit 5.3.1.3.

**Q.** With `C[C@]12C=CC(=O)C=C1CC[C@@H]1[C@@H]2[C@@H](O)C[C@@]2(C)[C@H]1C[C@H]1O[C@@H](c3ccc(Cc4cc(N)c5c(c4)CCO5)cc3)O[C@]12C(=O)CO` [Compound 009, (6aR,6bS,7S,8aS,8bS,10R,11aR,12aS,12bS)-10-(4-((7-amino-2,3-dihydrobenzofuran-5-yl)methyl)phenyl)-7-hydroxy-8b-(2-hydroxyacetyl)-6a,8a-dimethyl-6a,6b,7,8,8a,8b,11a,12,12a,12b-decahydro-1H-naphtho[2′,1′:4,5]indeno[1,2-d][1,3]dioxolan-4(2H)-one] as the molecule, how does the half-life at 1 μM [1] read?
**A.** 17.3 min

**Q.** What about the IC50 (CYP2D6) of the same molecule?
**A.** > 50 µM

— patent publication US20240307415A1, “STEROID COMPOUND, AND PHARMACEUTICAL COMPOSITION THEREOF AND USE THEREOF” (JIANGSU SIMCERE PHARMACEUTICAL CO., LTD., priority 2021, published 2024)
